Assay results: patent EP0393575B1, “Neoplasia treatment compositions containing antineoplastic agent and side-effect reducing protective agent” (priority 1989, dated 1990)
Read-outs that look alike come from different tables or passages of the source.

How the values were obtained:
normal BDF₁ mice [1] = test system: normal BDF₁ mice
Description: The effect of carbetimer on acute adriamycin toxicity in normal BDF₁ mice was evaluated. Normal BDF₁ mice were treated with carbetimer alone at 1700 mg/kg i.p. with adriamycin alone at 21 mg/kg i.v. or the combination of the two drugs, carbetimer being given half an hour before adriamycin. […] Data are reported in Table I and depicted in Figure 1.

normal BDF₁ mice [2] = test system: normal BDF₁ mice; remark: listed apart in the source
Description: The effect of carbetimer on sub-acute adriamycin toxicity in normal BDF₁ mice was evaluated. Normal BDF₁ mice were treated either with adriamycin alone at 21 mg/kg i.v. or with adriamycin at 21 mg/kg i.v. plus carbetimer 500 mg/kg i.v. given concurrently. […]

normal BDF₁ mice [3] = test system: normal BDF₁ mice; remark: listed apart in the source
Description: (§1) The effect of carbetimer on sub-acute adriamycin toxicity in normal BDF₁ mice was evaluated. Normal BDF₁ mice were treated either with adriamycin alone at 21 mg/kg i.v. or with adriamycin at 21 mg/kg i.v. plus carbetimer 250 mg/kg i.v. given concurrently. […] Data are reported in Table III in absolute weights of animals and depicted in Figure 3 in terms of percent of original weights of the animals.

normal BDF₁ mice [4] = test system: normal BDF₁ mice; remark: listed apart in the source
Description: as §1, with “125” for “250”, “IV” for “III”, “4” for “3”

MIA C51 cell line = experiment: Trial VI: survival of rats inoculated with tumor cells; type: in vivo; conditions: Adriamycin 10 mg/kg i.v. Day One Only
Description: Rats were inoculated with a million cells of MIA C51 cell line. Thereafter, animals were treated with saline control, carbetimer alone at 1700 mg/kg in days 1-5, or adriamycin at 10 mg/kg i.v., or adriamycin 10 mg/kg i.v. plus carbetimer at 1700 mg/kg i.p. Animals treated with the combination of carbetimer and adriamycin remained alive 40 days after treatment. The combination therapy provided greater tumor remission than carbetimer alone or adriamycin alone, indicating two drugs may act in an additive or synergistic manner to cure tumors in tumor-bearing rats. Data are reported in Table VI and depicted in Figure 6.

[5] = lethal dose of adriamycin alone, 21 mg/kg i.v.
[6] = Adriamycin alone 21 mg/kg i.v., Day 6

COc1cccc2c1C(=O)c1c(O)c3c(c(O)c1C2=O)C[C@@](O)(C(=O)CO)C[C@@H]3O[C@H]1C[C@H](N)[C@H](O)[C@H](C)O1 [Adriamycin, doxorubicin] was tested, and the mortality (normal BDF₁ mice [1]; Adriamycin 21 mg/kg i.v., 7 days post-treatment) was “all dead”, the “time to death from start of the therapy” value (normal BDF₁ mice [1]; [5]) was no more than 8 days and the mortality (normal BDF₁ mice [2]; [6]) was “all dead”. For the same compound, the “time to death from start of the therapy” value (normal BDF₁ mice [2]; [5]) was no more than 8 days, the mortality (normal BDF₁ mice [3]; Adriamycin alone 21 mg/kb i.v., Day 6) was “all dead” and the “time to death from start of the therapy” value (normal BDF₁ mice [3]; [5]) was no more than 8 days. The mortality (normal BDF₁ mice [4]; [6]) was “all dead”, the “time to death from start of the therapy” value (normal BDF₁ mice [4]; [5]) was no more than 10 days and the “% Rats Alive After Treatment” value (MIA C51 cell line; Days 0-8) was 100%. For the same compound, the “% Rats Alive After Treatment” value (MIA C51 cell line; Days 9-10) was 100%, the “% Rats Alive After Treatment” value (MIA C51 cell line; Days 11-26) was 100% and the “% Rats Alive After Treatment” value (MIA C51 cell line; Days 27-29) was 80%. For the same compound, the “% Rats Alive After Treatment” value (MIA C51 cell line; Days 30-32) was 0%, the “% Rats Alive After Treatment” value (MIA C51 cell line; Days 33-40) was 0% and the “% Rats Alive After Treatment” value (MIA C51 cell line; Days 41-43) was 0%.
